PubChem BioAssay (NCI)
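Five concentrations, 48 hours, 96-well plates. Definition used: TGI = concentration required for complete inhibition of growth.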

Columns and labels:
Assay in all cases: DTP human tumour cell line panel, 48 h
KM12 colon = test system: KM12 colon
HCT-116 colon = test system: HCT-116 colon
NCI/ADR-RES ovarian = test system: NCI/ADR-RES ovarian
BT-549 breast = test system: BT-549 breast
SNB-75 CNS = test system: SNB-75 CNS
HS 578T breast = test system: HS 578T breast
SK-OV-3 ovarian = test system: SK-OV-3 ovarian
SN12C renal = test system: SN12C renal
T-47D breast = test system: T-47D breast
A549 NSCLC = test system: A549 NSCLC
MCF7 breast = test system: MCF7 breast
RPMI-8226 leukemia = test system: RPMI-8226 leukemia
SNB-19 CNS = test system: SNB-19 CNS
RXF 393 renal = test system: RXF 393 renal
NCI-H23 lung = test system: NCI-H23 lung
MDA-N = test system: MDA-N
SK-MEL-28 melanoma = test system: SK-MEL-28 melanoma
M14 melanoma = test system: M14 melanoma
OVCAR-5 ovarian = test system: OVCAR-5 ovarian
NCI-H226 lung = test system: NCI-H226 lung
DU-145 prostate = test system: DU-145 prostate
OVCAR-8 ovarian = test system: OVCAR-8 ovarian
A498 renal = test system: A498 renal
EKVX NSCLC = test system: EKVX NSCLC
MDA-MB-435 = test system: MDA-MB-435
SW-620 colon = test system: SW-620 colon
UACC-62 melanoma = test system: UACC-62 melanoma
IGROV1 ovarian = test system: IGROV1 ovarian
OVCAR-3 ovarian = test system: OVCAR-3 ovarian
PC-3 prostate = test system: PC-3 prostate
UACC-257 melanoma = test system: UACC-257 melanoma
SF-295 CNS = test system: SF-295 CNS
HOP-62 NSCLC = test system: HOP-62 NSCLC
HL-60(TB) leukemia = test system: HL-60(TB) leukemia
SF-268 CNS = test system: SF-268 CNS
MDA-MB-231 breast = test system: MDA-MB-231 breast
ACHN renal = test system: ACHN renal
786-0 renal = test system: 786-0 renal
LOX IMVI melanoma = test system: LOX IMVI melanoma
COLO 205 colon = test system: COLO 205 colon
CCRF-CEM leukemia = test system: CCRF-CEM leukemia
SK-MEL-5 melanoma = test system: SK-MEL-5 melanoma
HT29 colon = test system: HT29 colon
MOLT-4 leukemia = test system: MOLT-4 leukemia
SK-MEL-2 melanoma = test system: SK-MEL-2 melanoma
SF-539 CNS = test system: SF-539 CNS
UO-31 renal = test system: UO-31 renal
K-562 leukemia = test system: K-562 leukemia

In the case of `S=C1NC2=C(COc3ccccc32)C(c2ccc(Cl)cc2)N1` (stereo not drawn), the TGI (KM12 colon) is reported as 32.7 µM, the TGI (HCT-116 colon) is reported as 28.9 µM and the TGI (NCI/ADR-RES ovarian) is reported as 41.3 µM. The TGI (BT-549 breast) was 41.5 µM, the TGI (SNB-75 CNS) was 38 µM and the TGI (HS 578T breast) was 50.4 µM. For the same compound, the TGI (SK-OV-3 ovarian) was 35.8 µM, the TGI (SN12C renal) was 8.64 µM and the TGI (T-47D breast) was 45 µM. For the same compound, the TGI (A549 NSCLC) was 48.2 µM, the TGI (MCF7 breast) was 38.4 µM and the TGI (RPMI-8226 leukemia) was 22.4 µM. For the same compound, the TGI (SNB-19 CNS) was 45.3 µM, the TGI (RXF 393 renal) was 37.4 µM and the TGI (NCI-H23 lung) was 45.9 µM. For the same compound, the TGI (MDA-N) was 29.9 µM, the TGI (SK-MEL-28 melanoma) was 46.8 µM and the TGI (M14 melanoma) was 34.5 µM. For the same compound, the TGI (OVCAR-5 ovarian) was 30.7 µM, the TGI (NCI-H226 lung) was 36 µM and the TGI (DU-145 prostate) was 35.7 µM. For the same compound, the TGI (OVCAR-8 ovarian) was 41.7 µM, the TGI (A498 renal) was 39.1 µM and the TGI (EKVX NSCLC) was 34.2 µM. It also gave a TGI (MDA-MB-435) of 58.2 µM, a TGI (SW-620 colon) of 78.8 µM and a TGI (UACC-62 melanoma) of 34.7 µM. The TGI (IGROV1 ovarian) was 31.6 µM, the TGI (OVCAR-3 ovarian) was 28.7 µM and the TGI (PC-3 prostate) was 26.2 µM. For the same compound, the TGI (UACC-257 melanoma) was 41.6 µM, the TGI (SF-295 CNS) was 29 µM and the TGI (HOP-62 NSCLC) was 31 µM. For the same compound, the TGI (HL-60(TB) leukemia) was 43.3 µM, the TGI (SF-268 CNS) was 39.7 µM and the TGI (MDA-MB-231 breast) was 34 µM. It also gave a TGI (ACHN renal) of 43.6 µM, a TGI (786-0 renal) of 34.5 µM and a TGI (LOX IMVI melanoma) of 30.3 µM. For the same compound, the TGI (COLO 205 colon) was 36.9 µM, the TGI (CCRF-CEM leukemia) was 64.7 µM and the TGI (SK-MEL-5 melanoma) was 30.5 µM. For the same compound, the TGI (HT29 colon) was 31.7 µM, the TGI (MOLT-4 leukemia) was 38.7 µM and the TGI (SK-MEL-2 melanoma) was 29 µM. The TGI (SF-539 CNS) was 34.9 µM, the TGI (UO-31 renal) was 35.1 µM and the TGI (K-562 leukemia) was 38.1 µM.
